The results in this text go back to ChEMBL document CHEMBL3507680, “University of Dundee, Gates Library screen for HepG2 cell viability”.

The nature of the series: Human HepG2 cell viability assay in 384 well format. Details: dose 125 nL, time 70.5 hour; cytotoxicity at 70.5 h: concentration not given beside the values. The class given is toxicity, cell-based. Particulars: HepG2 cells, read-out: Inhibition.
For the molecule `c1cnc(N2CCC(C3CCN(CCCn4cccn4)C3)CC2)nc1` (stereo not drawn), the cytotoxicity at 70.5 h was determined as 0.616%.
As for `O=C(O)[C@@H]1CN(CC(=O)N2CCCCC2)C[C@H]1c1ccc(F)cc1`, the cytotoxicity at 70.5 h is -2.52%.
Next, `Cc1cc(C(=O)N2CCCC2)ccc1NS(C)(=O)=O`: -7.84%; `CCC1CN(CCC(=O)N(C)C)CCN1CCOC` (stereo not drawn): -8.66%.
Under `COC(=O)COc1cccc(NS(=O)(=O)c2cc(C(=O)O)cs2)c1` stands 10.9%.
Regarding `O=C(NCCNc1ccc(C(F)(F)F)cn1)c1ccc(Br)cc1`, the cytotoxicity at 70.5 h is 1.55%.
Consider `Cc1nn(C)c(C)c1C1CCCN1C(=O)c1cc(C(N)=O)cs1` (stereo not drawn), for which the cytotoxicity at 70.5 h was -6.04%.
Take `COc1ncnc(N)c1CNCCc1ccccc1`: the cytotoxicity at 70.5 h is -2.72%.
For `CCC(CNC1CCN(C(C)=O)CC1)Oc1ccccc1Cl` (stereo not drawn), the cytotoxicity at 70.5 h came to 5.02%.
For the molecule `Cc1cc(C(=O)N2CCN(Cc3ccsc3)CC2)n(C)n1`, the cytotoxicity at 70.5 h is -14.3%.
On to `O=C(Nc1cccc(OCc2cccc(F)c2)c1)C1COCCO1` (stereo not drawn), for which the cytotoxicity at 70.5 h was -0.586%.
As for `O=C(NCc1ccc(C(=O)O)o1)c1ccc(F)cc1`, the cytotoxicity at 70.5 h stood at 0.996%.
Next, `Cc1nn(C)c(C)c1CN(C)C1CCN(c2ncnc3[nH]cnc23)CC1`: 23.7%.
Consider `Cc1nc(CN2CC[C@@H]3O[C@@H](C(=O)N4CCOCC4)C[C@@H]32)cs1`, for which the cytotoxicity at 70.5 h was -9.93%.
Next, `O=C(CN1CCc2cncnc2C1)NCCOc1cccc(Cl)c1`: -4.17%; `CCNC(=O)c1cn2cc(-c3ccccc3Cl)n(CC3CC3)c(=O)c2n1`: 16.2%.
Regarding `O=C(c1ccco1)N1CCCC2(CCN(c3nncs3)C2)C1` (stereo not drawn), the cytotoxicity at 70.5 h was -5.1%.
`Cn1cccc1C(=O)N1CCCCC12CC(=O)N(c1cccnc1)C2` (stereo not drawn): the cytotoxicity at 70.5 h is -3.4%.
Under `Cc1nc(C)n(CC2CN(CCOc3cccc(F)c3)CCO2)n1` (stereo not drawn) stands -9.64%; under `CC(C)CN1CCC2(C1)CN(c1ncccn1)C2`, -11.9%.
On to `CN1CCN([C@@H]2CCN(CC3CCOC3)[C@H]2Cc2cnn(C)c2)CC1` (stereo partly drawn), for which the cytotoxicity at 70.5 h is -13%.
For the molecule `O=C(NS(=O)(=O)c1c(Cl)cccc1Cl)c1cccc2c1OCCO2`, the cytotoxicity at 70.5 h was -103%.
Next, `O=C(NCc1ccco1)c1cc[n+]([O-])cc1`: -4.13%; `CC(C)NC(=O)CC1COC2(CCN(Cc3ccco3)CC2)C1` (stereo not drawn): 18%.
Under `Cc1cc(CN2CCC(CNS(=O)(=O)c3c(C)noc3C)CC2)c(C)o1` stands 2.34%.
Next, `CN(C)CC(=O)N1C[C@@H]2CC[C@H](Oc3ccccc3Cl)[C@@H]2C1`: -15.6%; `COc1ccc2[nH]nc(CN3CCC(C(C)N4CCCC4)CC3)c2c1` (stereo not drawn): -1.99%.
For `CC(C)n1ncc2c1NC(=O)CSC2C(F)(F)F` (stereo not drawn), the cytotoxicity at 70.5 h is -21%.
In the case of `Cn1ccc(CN2CCCC23CCN(Cc2nccn2C)CC3)n1`, the cytotoxicity at 70.5 h was -2.05%.
Consider `Cc1nc(-c2ccccc2)n(CC(=O)NCC(C)C)n1`, for which the cytotoxicity at 70.5 h was -3.55%.
Under `COc1c(C2CCCN2C(=O)c2cccnc2N(C)C)c(C)nn1C` (stereo not drawn) stands 0.616%.
Next, `COc1ccc2c(c1)nc1n2[C@@H](CNCc2ncccc2C)COC1`: -5.69%; `CCN1CC2(CC1=O)CN(C(=O)c1ccco1)CCN(C(=O)C(C)C)C2` (stereo not drawn): 0.454%.
Next, `CCN(CC1CCOC1)C(=O)c1ccc(COc2ccccc2C#N)o1` (stereo not drawn): -3.17%; `Cc1cccc(CN2CC3(CCN(C(=O)N(C)C)CC3)OCC2=O)n1`: -0.965%.
As to `Cc1ccc(N2CCC3(CC2)CCN(C2CCOC2)CC3)nn1` (stereo not drawn), the cytotoxicity at 70.5 h was -6.73%.
Under `Cc1nc(CN2CCN(CC3CCOC3)Cc3cccnc32)cs1` (stereo not drawn) stands -8.4%.
Under `CSc1cccc(CNC(=O)[C@H]2CNC[C@H](C(=O)N3CCOCC3)C2)c1` stands -2.2%.
Take `COC(=O)CC(NC(=O)c1cccc(N2CCCC2=O)c1)c1cccs1` (stereo not drawn): the cytotoxicity at 70.5 h is 4.95%.
With `CC(C)OCCCNC(=O)CN1CCN(c2nccs2)C(C)C1` (stereo not drawn), the cytotoxicity at 70.5 h stood at 35.5%.
Next, `Cc1c(C)n(CC(O)CN2CCN(CCO)CC2)c2c(Cl)cccc12` (stereo not drawn): 10%.
With `Cc1cnc(NC(=O)NCCOc2ncccc2Cl)s1`, the cytotoxicity at 70.5 h was -4.99%.
Under `CC(C)N1CCCC(c2cc(C(F)(F)F)nc3nccn23)C1` (stereo not drawn) stands -0.494%; under `Cc1cc(C(=O)NCc2ccco2)nn1C`, -11.3%; under `CN1CCC(Cc2nc(-c3cnccn3)n(C3CCS(=O)(=O)C3)n2)CC1` (stereo not drawn), 0.375%.
Under `CCC(O)CN1CCN(C(=O)Cc2ccccc2Cl)CC1` (stereo not drawn) stands -0.929%; under `CCC(CC)C(=O)c1c[nH]c(C(=O)N2CCN(c3ccccc3)CC2)c1`, -3.31%; under `CO[C@@H]1CC[C@@H](NS(=O)(=O)c2cn(C)nc2C)[C@H]1O`, -1.72%.
Next, `CC(C)N1C(=O)CC(N2CCN(c3ccc(F)cc3)CC2)C1=O` (stereo not drawn): 6.65%.
Take `Cn1cc(I)c(C(=O)NC2CCCC2)n1`: the cytotoxicity at 70.5 h was 10.4%.
Regarding `Cc1nccc(C(=O)NC(CN2CCCC2=O)c2ccccc2)n1` (stereo not drawn), the cytotoxicity at 70.5 h is -3.75%.
Under `CC[C@H]1CN(C(=O)c2cccnc2)CC[C@H]1CC(=O)NC1CC1` stands -4.36%; under `CC(C)CCN1C[C@H]2C[C@H](C(=O)NCc3ccccc3)[C@@H](C1)O2`, 5.49%; under `CN(C)C(=O)c1ccc(CNc2c(Cl)cccc2C#N)cc1`, 3.41%.
Take `CN(C)CCN(Cc1ccc(Cl)cc1)C(=O)c1cnccn1`: the cytotoxicity at 70.5 h came to 3.24%.
Turning to `COc1cc(NC(=O)NC2CCCC2)ccc1N1CCOC1=O`, the cytotoxicity at 70.5 h was -8.76%.
Turning to `O=C(NCCc1ccsc1)c1ccoc1`, the cytotoxicity at 70.5 h was 5.67%.
As for `Clc1ccccc1C1(c2ccnc(CC3CC3)n2)CCNCC1`, the cytotoxicity at 70.5 h turned out to be 4.53%.
Turning to `O=C(CCNC(=O)c1ccccc1F)NCCNc1cccnc1`, the cytotoxicity at 70.5 h worked out at 1.94%.
Next, `Cc1cc(C(=O)N2CCC(CCC(=O)NCCN(C)C)CC2)ccc1O`: 24.4%; `NC(=O)N1CC[C@@H]2O[C@H](COCC(=O)N3CCCC3)CC[C@@H]21`: -0.223%; `Cc1cc(C)n(-c2ccc(N3CCC(O)CC3)nc2)n1`: -1.96%.
Consider `Cc1nc(-c2nnc[nH]2)sc1C(=O)N1CCCC1c1ccsc1` (stereo not drawn), for which the cytotoxicity at 70.5 h is -5.22%.
Next, `CCC(C)NC(=O)c1cc(S(=O)(=O)N(C)C)c(C)s1` (stereo not drawn): -4.34%.
On to `CCn1ncc2c1C(COCC1CC1)CN(C(=O)c1cccs1)C2` (stereo not drawn), for which the cytotoxicity at 70.5 h worked out at 6.27%.
For `CCc1ccc(CNC2(c3ccc(F)cc3)CCOCC2)o1`, the cytotoxicity at 70.5 h is -5.73%.
Next, `COCCc1noc(CN2CCc3nn(C(C)C)c(=O)cc3C2)n1`: 32.4%; `CC(=O)Nc1ccc(C(=O)N2CCOc3nc(C)ccc32)cc1`: -0.0601%.
Take `Cc1nnc(NC(=O)NCc2cccnc2N(C)C)s1`: the cytotoxicity at 70.5 h was -8.59%.
Next, `COC[C@@H]1CC[C@H]2[C@H](CCN2S(=O)(=O)c2cccc(F)c2)O1`: -5.66%.
Next, `Cc1ccc(C(C)NC(=O)N2CCNC(=O)CC2)cc1F` (stereo not drawn): -17.7%; `Cc1nc(C2CCN(Cc3ncc[nH]3)CC2)no1`: 19.7%; `Cc1ccc(C)c(C(=O)N2CCOC(CCN(C)C)C2)c1` (stereo not drawn): -9.2%.
Under `CC(C)[C@@H]1CN(S(=O)(=O)Cc2ccccc2)C[C@H]1NS(=O)(=O)N(C)C` stands -2.27%.
As to `N[C@@H]1CC[C@H](C(=O)NCc2ccc3nonc3c2)C1`, the cytotoxicity at 70.5 h was -13.2%.
For the molecule `COc1ccc(CN2CCC3(CC2)CCN(c2ncccn2)CC3)cc1`, the cytotoxicity at 70.5 h was -6.69%.
In the case of `Cc1cc(C2CCCN(C(=O)Cc3csc(C(C)C)n3)C2)n[nH]1` (stereo not drawn), the cytotoxicity at 70.5 h is -5.03%.
In the case of `COc1cccc(OCC2CCCN(c3cc(C(N)=O)ccn3)C2)c1` (stereo not drawn), the cytotoxicity at 70.5 h is -11.8%.
For the molecule `CC[C@@H](CO)Nc1nccc(-c2c[nH]c3cc(C(=O)OC)ccc23)n1`, the cytotoxicity at 70.5 h was -2.08%.
As for `Cc1ccc(N2CCCN(C(=O)CCc3nccs3)CC2)nn1`, the cytotoxicity at 70.5 h is -8.06%.
Next, `Cc1ccccc1CN1C[C@@H]2COC[C@]2(CNC(=O)C2CCC2)C1`: -7.13%.
Next, `O=C(NC1CCCC1)c1nc(COc2ccc3c(c2)OCO3)no1`: -9.86%.
Next, `Cc1n[nH]c(C)c1CN1CC[C@@H]2[C@@H](CCC(=O)N2CCc2c[nH]cn2)C1`: 1.53%; `O=C(c1ccnnc1)N1CCC2(CC1)CN(c1ccccn1)CCO2`: -10.9%; `CS(=O)(=O)N1CCc2ccc(=O)n(CC3CC3)c2CC1`: -7.85%.
As for `CCn1cnnc1CNC(=O)CCC(=O)c1ccc2c(c1)OCCO2`, the cytotoxicity at 70.5 h is -9.39%.
Under `Cc1nc(CN2CCN(C(=O)CCc3cccnc3)CC2)no1` stands 16.4%; under `O=C(C1CCOc2ccccc21)N1CCOc2cccc(F)c21` (stereo not drawn), 4.13%.
Under `CCS(=O)(=O)N1CCC(c2nccn2Cc2ccncc2)CC1` stands -1.9%.
Regarding `NC(=O)c1cccc(NC(=O)CSc2ccc3c(c2)CCC3)c1`, the cytotoxicity at 70.5 h was -1.16%.
Consider `CC(NC(=O)NCCc1ccc(Cl)s1)c1ccccn1` (stereo not drawn), for which the cytotoxicity at 70.5 h was -2.15%.
For the molecule `COCCC(=O)N1CCC2(CCCN2Cc2cccc(Cl)c2)C1` (stereo not drawn), the cytotoxicity at 70.5 h was -53.8%.
Next, `CC(C)Cc1cc(C(=O)NCC(O)c2ccc(F)cc2)n(C)n1` (stereo not drawn): -16.2%.
As to `Cc1cc(C(=O)N2CCCCC2)ccc1NS(C)(=O)=O`, the cytotoxicity at 70.5 h was -8.47%.
Consider `COc1ccccc1C1CCCN1CC(=O)N1CCC(C(N)=O)CC1` (stereo not drawn), for which the cytotoxicity at 70.5 h was determined as 22.3%.
As for `CC(C)Nc1ncnc2c1CCN(C(=O)NCc1cccnc1)CC2`, the cytotoxicity at 70.5 h is -1.24%.
As for `COCCn1cnc2ccc(NC(=O)CCCn3cccn3)cc2c1=O`, the cytotoxicity at 70.5 h is -7.81%.
Next, `Cc1cccc(CN2CCC(c3nnsc3S(C)(=O)=O)CC2)c1`: -5.38%.
